Literature values in patent US20260157999A1, “[…] OF ALKALOID COMPOUNDS AND […] USES THEREOF” (Sensorium Therapeutics, Inc., priority 2021, published 2026).

Conditions: described pharmacokinetics, rapid metabolism and excretion

Question: For `COc1ccc(C23CCC(=O)CC2N(C)CC3)cc1OC` (stereo not shown) [Mesembrine, 3a-(3,4-dimethoxyphenyl)-octahydro-1-methyl-6H-indol-6-one], which half-life in plasma is on record?
Answer: less than 2 hours
